Assay results taken from ChEMBL document CHEMBL1145374, “Discovery of para-alkylthiophenoxyacetic acids as a novel series of potent and selective PPARdelta agonists” (Bioorg Med Chem Lett, 2007).

Assays:
[1] = biological target: T1, Peroxisome proliferator-activated receptor delta (Homo sapiens, UniProt Q03181); experiment: Agonist activity at human PPARdelta receptor by cell based transactivation assay; format: functional
T1 sequence (Q03181 whole entry): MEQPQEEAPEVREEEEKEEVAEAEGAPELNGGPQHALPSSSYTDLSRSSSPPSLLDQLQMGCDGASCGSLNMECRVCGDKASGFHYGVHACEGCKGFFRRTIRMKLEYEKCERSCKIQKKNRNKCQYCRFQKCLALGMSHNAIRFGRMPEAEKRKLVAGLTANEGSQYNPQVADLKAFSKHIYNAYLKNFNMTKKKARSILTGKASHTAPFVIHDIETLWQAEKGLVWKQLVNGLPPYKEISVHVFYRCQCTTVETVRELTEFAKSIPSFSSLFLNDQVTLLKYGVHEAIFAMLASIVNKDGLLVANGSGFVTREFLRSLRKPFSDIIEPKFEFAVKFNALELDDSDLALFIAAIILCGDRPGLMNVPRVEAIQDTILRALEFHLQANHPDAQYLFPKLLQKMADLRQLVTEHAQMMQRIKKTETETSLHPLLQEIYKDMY

[2] = biological target: T2, Peroxisome proliferator-activated receptor alpha (Homo sapiens, UniProt Q07869); experiment: Activity at human PPARalpha receptor by cell based transactivation assay
T2 sequence (Q07869 whole entry): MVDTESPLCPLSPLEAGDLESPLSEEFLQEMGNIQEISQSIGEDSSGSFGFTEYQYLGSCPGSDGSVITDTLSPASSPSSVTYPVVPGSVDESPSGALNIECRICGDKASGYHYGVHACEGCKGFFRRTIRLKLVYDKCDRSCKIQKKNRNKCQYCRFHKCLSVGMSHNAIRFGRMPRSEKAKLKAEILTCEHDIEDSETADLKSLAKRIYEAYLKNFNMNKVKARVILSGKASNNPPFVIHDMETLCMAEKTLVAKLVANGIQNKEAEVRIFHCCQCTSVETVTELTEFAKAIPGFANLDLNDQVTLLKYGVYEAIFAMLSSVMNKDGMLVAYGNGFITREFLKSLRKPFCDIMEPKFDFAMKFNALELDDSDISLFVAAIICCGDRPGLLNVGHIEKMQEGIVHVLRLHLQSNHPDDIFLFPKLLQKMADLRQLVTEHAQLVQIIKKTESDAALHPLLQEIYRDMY

[3] = biological target: T3, Peroxisome proliferator-activated receptor gamma (Homo sapiens, UniProt P37231); experiment: Activity at human PPARgamma receptor by cell based transactivation assay
T3 sequence (P37231 whole entry): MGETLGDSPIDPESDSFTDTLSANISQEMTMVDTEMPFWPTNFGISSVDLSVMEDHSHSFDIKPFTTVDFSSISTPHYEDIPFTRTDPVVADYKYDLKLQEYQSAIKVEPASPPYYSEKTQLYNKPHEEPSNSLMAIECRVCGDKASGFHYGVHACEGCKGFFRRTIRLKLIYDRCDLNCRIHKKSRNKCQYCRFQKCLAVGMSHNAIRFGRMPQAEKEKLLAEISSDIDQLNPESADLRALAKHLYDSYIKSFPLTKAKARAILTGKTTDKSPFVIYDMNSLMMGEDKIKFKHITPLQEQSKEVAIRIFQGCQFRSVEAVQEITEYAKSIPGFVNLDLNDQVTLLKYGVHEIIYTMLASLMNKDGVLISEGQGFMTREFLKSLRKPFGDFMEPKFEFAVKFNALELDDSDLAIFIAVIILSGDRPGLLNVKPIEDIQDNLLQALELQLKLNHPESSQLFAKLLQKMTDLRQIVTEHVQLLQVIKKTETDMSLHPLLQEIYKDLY

[4] = Oral bioavailability in rat; format: ADME, organism-based; settings: in vivo
[5] = Half life in rat; format: ADME, organism-based; settings: in vivo
[6] = Cmax in rat; format: ADME, organism-based; settings: in vivo
[7] = AUC in rat; format: ADME, organism-based; settings: plasma
[8] = Tmax in rat; format: ADME, organism-based; settings: in vivo

Row | Structure (SMILES) | EC50 [1] [nM] | EC50 [2] [nM] | EC50 [3] [nM] | further results
1 | C=CCOC(COc1ccc(C(F)(F)F)cc1)CSc1ccc(OCC(=O)O)c(C)c1 (stereo not given) | 3.9 | > 1000 | > 1000 | 
2 | Cc1cc(SCC(COc2ccc(C(F)(F)F)cc2)COc2ccc(C(F)(F)F)cc2)ccc1OCC(=O)O |  | > 1000 | > 1000 | 
3 | Cc1cc(SCC(COc2ccc(C(F)(F)F)cc2)OCc2ccccc2)ccc1OCC(=O)O (stereo not given) |  | > 1000 | > 1000 | 
4 | CCOC(CCc1ccc(C(F)(F)F)cc1)CSc1ccc(OCC(=O)O)c(C)c1 (stereo not given) |  | > 1000 | > 1000 | 
5 | CCC(COc1ccc(C(F)(F)F)cc1)CSc1ccc(OCC(=O)O)c(C)c1 (stereo not given) | 0.06 | > 1000 | > 1000 | 
6 | CC[C@H](COc1ccc(C(F)(F)F)cc1)CSc1ccc(OCC(=O)O)c(C)c1 | 0.03 | > 1000 | > 1000 | bioavailability [4]: 84%; half-life [5]: 8.2 h; Cmax [6]: 8870 ng/mL; AUC [7]: 13600 ng·h/mL; Tmax [8]: 0.5 h
7 | CCCC(=O)c1ccc(OC(COc2ccc(C(F)(F)F)cc2)CSc2ccc(OCC(=O)O)c(C)c2)cc1 (stereo not given) |  | > 1000 | > 1000 | 
8 | CCCOC(COc1ccc(C(F)(F)F)cc1)CSc1ccc(OCC(=O)O)c(C)c1 (stereo not given) |  | > 1000 | > 1000 | 
9 | COCOC(COc1ccc(C(F)(F)F)cc1)CSc1ccc(OCC(=O)O)c(C)c1 (stereo not given) |  | > 1000 | > 1000 | 
10 | CCOCC(COc1ccc(C(F)(F)F)cc1)CSc1ccc(OCC(=O)O)c(C)c1 (stereo not given) |  | > 1000 | > 1000 | 
11 | CCO[C@@H](COc1ccc(C(F)(F)F)cc1)CSc1ccc(OCC(=O)O)c(C)c1 | 25 | > 1000 | > 1000 | 
12 | COCO[C@@H](COc1ccc(C(F)(F)F)cc1)CSc1ccc(OCC(=O)O)c(C)c1 | 70 | > 1000 | > 1000 | 

Second part, led by results:

Row | EC50 [1] [nM] | EC50 [2] [nM] | EC50 [3] [nM] | Structure (SMILES) | further results
13 | 15.2 | > 1000 | > 1000 | CSCOC(CCc1ccc(C(F)(F)F)cc1)CSc1ccc(OCC(=O)O)c(C)c1 (stereo not given) | 
14 |  | > 1000 | > 1000 | COCO[C@H](COc1ccc(C(F)(F)F)cc1)CSc1ccc(OCC(=O)O)c(C)c1 | 
15 |  | > 1000 | > 1000 | Cc1cc(SCC(O)COc2ccc(C(F)(F)F)cc2)ccc1OCC(=O)O (stereo not given) | 
16 | 7 | > 1000 | > 1000 | CCCCOC(COc1ccc(C(F)(F)F)cc1)CSc1ccc(OCC(=O)O)c(C)c1 (stereo not given) | 
17 |  | > 1000 | > 1000 | CCOC(COc1ccc(C(F)(F)F)cc1)COc1ccc(OCC(=O)O)c(C)c1 (stereo not given) | 
18 | 18.8 | > 1000 | > 1000 | COC(COc1ccc(C(F)(F)F)cc1)CSc1ccc(OCC(=O)O)c(C)c1 (stereo not given) | 
19 | > 3000 | > 1000 | > 1000 | CCO[C@H](COc1ccc(C(F)(F)F)cc1)C[S+]([O-])c1ccc(OCC(=O)O)c(C)c1 (stereo not given in full) | 
20 |  | > 1000 | > 1000 | COc1ccc(OC(COc2ccc(C(F)(F)F)cc2)CSc2ccc(OCC(=O)O)c(C)c2)cc1 (stereo not given) | 
21 |  | > 1000 | > 1000 | Cc1cc(SCC(COc2ccc(C(F)(F)F)cc2)OCC(=O)O)ccc1OCC(=O)O (stereo not given) | 
22 | 1.9 | > 1000 | > 1000 | CCO[C@H](COc1ccc(C(F)(F)F)cc1)CSc1ccc(OCC(=O)O)c(C)c1 | 
23 | 3.4 | > 1000 | > 1000 | CCOC(COc1ccc(C(F)(F)F)cc1)CSc1ccc(OCC(=O)O)c(C)c1 (stereo not given) | 
24 | 7.4 | > 1000 | > 1000 | Cc1cc(SCC(C)COc2ccc(C(F)(F)F)cc2)ccc1OCC(=O)O (stereo not given) | 
